pKd: −log10 of the molar value. In brackets after ≈: the same amount, converted by molar mass.
Tests used:
B. cereus ATCC 11778 = experiment: NCCLS broth microdilution MIC, B. cereus; assay type: cell-based, Bacillus cereus; details: organism A = B. cereus ATCC 11778; for MIC: Bacillus cereus, ATCC11778, read-out: Minimum Inhibitory Concentration (MIC)
Description: (§1) Compounds according to this invention were screened for their in vitro activities against selected species of bacteria and fungi. […]

C. albicans ATCC 38247 = experiment: Antifungal MIC, C. albicans; assay type: cell-based, Candida albicans; details: organism B = C. albicans ATCC 38247; for MIC: Candida albicans, ATCC38247, read-out: Minimum Inhibitory Concentration (MIC)
Description: as §1

E. faecalis ATCC 29212 = experiment: NCCLS broth microdilution MIC, E. faecalis; assay type: cell-based; details: organism C = E. faecalis ATCC 29212; for MIC: Enterococcus faecalis, ATCC29212, read-out: Minimum Inhibitory Concentration (MIC)
Description: as §1

E. faecium ATCC 51559 = experiment: NCCLS broth microdilution MIC, E. faecium (VRE); assay type: cell-based, Enterococcus faecium; details: organism D = E. faecium ATCC 51559 (VRE)
Description: as §1

S. aureus ATCC 13709 = experiment: NCCLS broth microdilution MIC, S. aureus (MSSA); assay type: cell-based, Staphylococcus aureus; details: organism E = S. aureus ATCC 13709 (MSSA); for MIC: Staphylococcus aureus, read-out: Minimum Inhibitory Concentration (MIC)
Description: as §1

S. aureus ATCC 27660 = experiment: NCCLS broth microdilution MIC, S. aureus (MRSA); assay type: cell-based, Staphylococcus aureus; details: organism F = S. aureus ATCC 27660 (MRSA)
Description: as §1

[1] = tested on: S. epidermidis ATCC 12228; experiment: NCCLS broth microdilution MIC, S. epidermidis; assay type: cell-based, Staphylococcus epidermidis; details: organism G = S. epidermidis ATCC 12228
Description: as §1

S. pneumoniae ATCC 49619 = experiment: NCCLS broth microdilution MIC, S. pneumoniae ATCC 49619; assay type: cell-based, Streptococcus pneumoniae; details: organism H = S. pneumoniae ATCC 49619; for MIC: Streptococcus pneumoniae, ATCC49619, read-out: Minimum Inhibitory Concentration (MIC)
Description: as §1

S. pneumoniae ATCC 51422 = experiment: NCCLS broth microdilution MIC, S. pneumoniae (PRSP); assay type: cell-based, Streptococcus pneumoniae; details: organism I = S. pneumoniae ATCC 51422 (PRSP)
Description: as §1

[2] = target: target sequence AGTACT, 310 base pair dsDNA restriction fragment of Plasmid A; experiment: Quantitative DNase I footprint titration, AGTACT; assay type: binding; details: 310 bp/A, pH 7.0, 22° C., read-out: Dissociation Constant Kd
[3] = target: target sequence ACAATTAAT, 352 bp fragment of Plasmid B; experiment: Quantitative DNase I footprint titration, […]; assay type: binding; details: 352 bp/B, pH 7.0, 22° C., read-out: Dissociation Constant Kd
[4] = target: target sequence AATTAATCAT, 352 base pair dsDNA restriction fragment of Plasmid B; experiment: Quantitative DNase I footprint titration, […]; assay type: binding; details: 352 bp/B, pH 7.0, 22° C., read-out: Dissociation Constant Kd
[5] = tested on: methicillin resistant Staphylococcus aureus ATCC 33591; experiment: Murine neutropenic thigh model; assay type: in vivo; details: 50 mg/kg intravenously two hours post infection, thigh at 6 hr, neutropenic CF1 mice
Description: The suspension was diluted 1:100 in phosphate buffered saline (pH 7.2) for a final concentration of 10^6 cfu/mL.
Outbred female CF1 mice (approx. 20 gram body weight) were rendered neutropenic by treatment with cyclophosphamide (200 mg/kg body weight, intraperitoneal injection) at 2 and 4 days prior to inoculation. Groups of 5 mice were inoculated with 0.05 mL of the bacteria (approx. 10^6 cfu/mL) into the anterior thigh. Each group was treated intravenously two hours post infection with vehicle (phosphate buffered saline) or test compound. The mice were sacrificed at either 6 or 24 hrs after treatment and thighs were collected aseptically. Each thigh was weighed, placed into sterile saline, and homogenized. The tissue homogenates were diluted appropriately for plating on agar plates. Colony counts were recorded (cfu/gram) and compared to control groups.

Compound | Minimum Inhibitory Concentration (MIC) (B. cereus ATCC 11778) | Minimum Inhibitory Concentration (MIC) (C. albicans ATCC 38247) | Minimum Inhibitory Concentration (MIC) (E. faecalis ATCC 29212) | Minimum Inhibitory Concentration (MIC) (E. faecium ATCC 51559) | Minimum Inhibitory Concentration (MIC) (S. aureus ATCC 13709) | Minimum Inhibitory Concentration (MIC) (S. aureus ATCC 27660) | Minimum Inhibitory Concentration (MIC) [1] | Minimum Inhibitory Concentration (MIC) (S. pneumoniae ATCC 49619) | Minimum Inhibitory Concentration (MIC) (S. pneumoniae ATCC 51422) | pKd [2] | MIC (B. cereus ATCC 11778) [µg/mL] | MIC (C. albicans ATCC 38247) [µg/mL] | MIC (E. faecalis ATCC 29212) [µg/mL] | MIC (S. aureus ATCC 13709) [µg/mL] | MIC (S. pneumoniae ATCC 49619) [µg/mL] | pKd [4] | Colony Count (log cfu/gram), Compound [5] [log cfu/gram] | further results
Cn1cc(NC(=O)c2cc3ccccc3cn2)cc1C(=O)Nc1cc(C(=O)Nc2cc(C(=O)NCCN3CCOCC3)n(CCN3CCOCC3)c2)n(C)c1 [Ib-56] |  |  |  |  |  |  |  |  |  | > 7.00 | < 4 | > 32 | < 4 | < 4 | < 4 | 8.30 |  | MIC (E. faecium ATCC 51559; Enterococcus faecium, read-out: Minimum Inhibitory Concentration (MIC)): 4 to 12 µg/mL (≈ 5.33 to 16 µM); MIC (S. aureus ATCC 27660; Staphylococcus aureus, read-out: Minimum Inhibitory Concentration (MIC)): < 4 µg/mL; MIC ([1]; Staphylococcus epidermidis, ATCC12228, read-out: Minimum Inhibitory Concentration (MIC)): < 4 µg/mL; MIC (S. pneumoniae ATCC 51422; Streptococcus pneumoniae, read-out: Minimum Inhibitory Concentration (MIC)): < 4 µg/mL
Cn1cc(NC(=O)c2cc3ccccc3cn2)cc1C(=O)Nc1cc(C(=O)Nc2cc(C(=O)NCCN3CCCCC3)n(CCN3CCCCC3)c2)n(C)c1 [Ib-68] | +++ (+++ = MIC ≦ 4) | + (+ = 12 ≦ MIC ≦ 32) | +++ (+++ = MIC ≦ 4) |  | +++ (+++ = MIC ≦ 4) | +++ (+++ = MIC ≦ 4) |  | +++ (+++ = MIC ≦ 4) |  |  |  |  |  |  |  |  | 6.36 | 
Cc1cc(NC(=O)c2cc(NC(=O)c3cc(NC(=O)c4cc5ccccc5cn4)cn3C)cn2CCCN(C)C)sn1 [Ib-66] | +++ (+++ = MIC ≦ 4) | +++ (+++ = MIC ≦ 4) | +++ (+++ = MIC ≦ 4) | ++ (++ = 4 < MIC < 12) | +++ (+++ = MIC ≦ 4) | +++ (+++ = MIC ≦ 4) | +++ (+++ = MIC ≦ 4) | +++ (+++ = MIC ≦ 4) | +++ (+++ = MIC ≦ 4) |  |  |  |  |  |  |  | 6.66 | 

Second part, led by results:

Minimum Inhibitory Concentration (MIC) (B. cereus ATCC 11778) | Minimum Inhibitory Concentration (MIC) (C. albicans ATCC 38247) | Minimum Inhibitory Concentration (MIC) (E. faecalis ATCC 29212) | Minimum Inhibitory Concentration (MIC) (E. faecium ATCC 51559) | Minimum Inhibitory Concentration (MIC) (S. aureus ATCC 13709) | Minimum Inhibitory Concentration (MIC) (S. aureus ATCC 27660) | Minimum Inhibitory Concentration (MIC) [1] | Minimum Inhibitory Concentration (MIC) (S. pneumoniae ATCC 49619) | Minimum Inhibitory Concentration (MIC) (S. pneumoniae ATCC 51422) | pKd [2] | MIC (B. cereus ATCC 11778) [µg/mL] | MIC (C. albicans ATCC 38247) [µg/mL] | MIC (E. faecalis ATCC 29212) [µg/mL] | MIC (S. aureus ATCC 13709) [µg/mL] | MIC (S. pneumoniae ATCC 49619) [µg/mL] | pKd [4] | Compound | Colony Count (log cfu/gram), Compound [5] [log cfu/gram] | further results
+++ (+++ = MIC ≦ 4) | >32 µg/mL | +++ (+++ = MIC ≦ 4) | +++ (+++ = MIC ≦ 4) | +++ (+++ = MIC ≦ 4) | +++ (+++ = MIC ≦ 4) | +++ (+++ = MIC ≦ 4) | +++ (+++ = MIC ≦ 4) | +++ (+++ = MIC ≦ 4) | 7.30 |  |  |  |  |  |  | Cn1cc(NC(=O)c2cc3ccccc3cn2)cc1C(=O)Nc1cc(C(=O)Nc2cc(C(=O)NCCN3CCCCC3)ns2)n(C)c1 [Ib-59] |  | pKd [3]: 9.00
 |  |  |  |  |  |  |  |  | 8.00 | < 4 | > 32 | < 4 | < 4 | < 4 | 8.30 | Cn1cc(NC(=O)c2cc(NC(=O)c3cc(NC(=O)c4cc5ccccc5cn4)no3)cn2C)cc1C(=O)NCCN1CCOCC1 [Ib-60] |  | 
